# Measured values from PubChem BioAssay (NCI).
#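 Compound exposure: 48 hours, 5 concentrations, 96-well plates. At the GI50, growth is halved. TGI denotes the concentration required for complete inhibition of growth.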
# Key:
# Assay in all cases: NCI-60 cell line screen, 48 h
# 786-0 renal = tested on: 786-0 renal
# A498 renal = tested on: A498 renal
# A549 NSCLC = tested on: A549 NSCLC
# ACHN renal = tested on: ACHN renal
# BT-549 breast = tested on: BT-549 breast
# CAKI-1 renal = tested on: CAKI-1 renal
# CCRF-CEM leukemia = tested on: CCRF-CEM leukemia
# COLO 205 colon = tested on: COLO 205 colon
# DU-145 prostate = tested on: DU-145 prostate
# EKVX NSCLC = tested on: EKVX NSCLC
# HCC-2998 colon = tested on: HCC-2998 colon
# HCT-116 colon = tested on: HCT-116 colon
# HCT-15 colon = tested on: HCT-15 colon
# HL-60(TB) leukemia = tested on: HL-60(TB) leukemia
# HOP-62 NSCLC = tested on: HOP-62 NSCLC
# HOP-92 NSCLC = tested on: HOP-92 NSCLC
# HS 578T breast = tested on: HS 578T breast
# HT29 colon = tested on: HT29 colon
# K-562 leukemia = tested on: K-562 leukemia
# KM12 colon = tested on: KM12 colon
# LOX IMVI melanoma = tested on: LOX IMVI melanoma
# M14 melanoma = tested on: M14 melanoma
# MALME-3M melanoma = tested on: MALME-3M melanoma
# MCF7 breast = tested on: MCF7 breast
# MDA-MB-231 breast = tested on: MDA-MB-231 breast
# MDA-MB-435 = tested on: MDA-MB-435
# MOLT-4 leukemia = tested on: MOLT-4 leukemia
# NCI-H226 lung = tested on: NCI-H226 lung
# NCI-H23 lung = tested on: NCI-H23 lung
# NCI-H460 lung = tested on: NCI-H460 lung
# NCI-H522 lung = tested on: NCI-H522 lung
# NCI/ADR-RES ovarian = tested on: NCI/ADR-RES ovarian
# OVCAR-3 ovarian = tested on: OVCAR-3 ovarian
# OVCAR-4 ovarian = tested on: OVCAR-4 ovarian
# OVCAR-5 ovarian = tested on: OVCAR-5 ovarian
# OVCAR-8 ovarian = tested on: OVCAR-8 ovarian
# PC-3 prostate = tested on: PC-3 prostate
# RPMI-8226 leukemia = tested on: RPMI-8226 leukemia
# RXF 393 renal = tested on: RXF 393 renal
# SF-268 CNS = tested on: SF-268 CNS
# SF-295 CNS = tested on: SF-295 CNS
# SF-539 CNS = tested on: SF-539 CNS
# SK-MEL-28 melanoma = tested on: SK-MEL-28 melanoma
# SK-MEL-5 melanoma = tested on: SK-MEL-5 melanoma
# SK-OV-3 ovarian = tested on: SK-OV-3 ovarian
# SN12C renal = tested on: SN12C renal
# SNB-19 CNS = tested on: SNB-19 CNS
# SNB-75 CNS = tested on: SNB-75 CNS
# SR leukemia = tested on: SR leukemia
# SW-620 colon = tested on: SW-620 colon
# T-47D breast = tested on: T-47D breast
# TK-10 renal = tested on: TK-10 renal
# U251 CNS = tested on: U251 CNS
# UACC-257 melanoma = tested on: UACC-257 melanoma
# UACC-62 melanoma = tested on: UACC-62 melanoma
# UO-31 renal = tested on: UO-31 renal
smiles,measurement,setting,value
COc1ccc2c(c1)[n+]([O-])c(C#N)c(NC(=O)c1cccs1)[n+]2[O-],GI50,786-0 renal,> 100 µM
same,TGI,786-0 renal,> 100 µM
same,GI50,A498 renal,> 100 µM
same,TGI,A498 renal,> 100 µM
same,GI50,A549 NSCLC,> 100 µM
same,TGI,A549 NSCLC,> 100 µM
same,GI50,ACHN renal,> 100 µM
same,TGI,ACHN renal,> 100 µM
same,GI50,BT-549 breast,> 100 µM
same,TGI,BT-549 breast,> 100 µM
same,GI50,CAKI-1 renal,> 100 µM
same,TGI,CAKI-1 renal,> 100 µM
same,GI50,CCRF-CEM leukemia,> 100 µM
same,TGI,CCRF-CEM leukemia,> 100 µM
same,GI50,COLO 205 colon,> 100 µM
same,TGI,COLO 205 colon,> 100 µM
same,GI50,DU-145 prostate,> 100 µM
same,TGI,DU-145 prostate,> 100 µM
same,GI50,EKVX NSCLC,> 100 µM
same,TGI,EKVX NSCLC,> 100 µM
same,GI50,HCC-2998 colon,> 100 µM
same,TGI,HCC-2998 colon,> 100 µM
same,GI50,HCT-116 colon,> 100 µM
same,TGI,HCT-116 colon,> 100 µM
same,GI50,HCT-15 colon,> 100 µM
same,TGI,HCT-15 colon,> 100 µM
same,GI50,HL-60(TB) leukemia,> 100 µM
same,TGI,HL-60(TB) leukemia,> 100 µM
same,GI50,HOP-62 NSCLC,> 100 µM
same,TGI,HOP-62 NSCLC,> 100 µM
same,GI50,HOP-92 NSCLC,> 100 µM
same,TGI,HOP-92 NSCLC,> 100 µM
same,GI50,HS 578T breast,> 100 µM
same,TGI,HS 578T breast,> 100 µM
same,GI50,HT29 colon,> 100 µM
same,TGI,HT29 colon,> 100 µM
same,GI50,K-562 leukemia,> 100 µM
same,TGI,K-562 leukemia,> 100 µM
same,GI50,KM12 colon,> 100 µM
same,TGI,KM12 colon,> 100 µM
same,GI50,LOX IMVI melanoma,> 100 µM
same,TGI,LOX IMVI melanoma,> 100 µM
same,GI50,M14 melanoma,> 100 µM
same,TGI,M14 melanoma,> 100 µM
same,GI50,MALME-3M melanoma,> 100 µM
same,TGI,MALME-3M melanoma,> 100 µM
same,GI50,MCF7 breast,> 100 µM
same,TGI,MCF7 breast,> 100 µM
same,GI50,MDA-MB-231 breast,> 100 µM
same,TGI,MDA-MB-231 breast,> 100 µM
same,GI50,MDA-MB-435,> 100 µM
same,TGI,MDA-MB-435,> 100 µM
same,GI50,MOLT-4 leukemia,> 100 µM
same,TGI,MOLT-4 leukemia,> 100 µM
same,GI50,NCI-H226 lung,> 100 µM
same,TGI,NCI-H226 lung,> 100 µM
same,GI50,NCI-H23 lung,> 100 µM
same,TGI,NCI-H23 lung,> 100 µM
same,GI50,NCI-H460 lung,> 100 µM
same,TGI,NCI-H460 lung,> 100 µM
same,GI50,NCI-H522 lung,> 100 µM
same,TGI,NCI-H522 lung,> 100 µM
same,GI50,NCI/ADR-RES ovarian,> 100 µM
same,TGI,NCI/ADR-RES ovarian,> 100 µM
same,GI50,OVCAR-3 ovarian,> 100 µM
same,TGI,OVCAR-3 ovarian,> 100 µM
same,GI50,OVCAR-4 ovarian,> 100 µM
same,TGI,OVCAR-4 ovarian,> 100 µM
same,GI50,OVCAR-5 ovarian,> 100 µM
same,TGI,OVCAR-5 ovarian,> 100 µM
same,GI50,OVCAR-8 ovarian,> 100 µM
same,TGI,OVCAR-8 ovarian,> 100 µM
same,GI50,PC-3 prostate,> 100 µM
same,TGI,PC-3 prostate,> 100 µM
same,GI50,RPMI-8226 leukemia,> 100 µM
same,TGI,RPMI-8226 leukemia,> 100 µM
same,GI50,RXF 393 renal,> 100 µM
same,TGI,RXF 393 renal,> 100 µM
same,GI50,SF-268 CNS,> 100 µM
same,TGI,SF-268 CNS,> 100 µM
same,GI50,SF-295 CNS,> 100 µM
same,TGI,SF-295 CNS,> 100 µM
same,GI50,SF-539 CNS,> 100 µM
same,TGI,SF-539 CNS,> 100 µM
same,GI50,SK-MEL-28 melanoma,> 100 µM
same,TGI,SK-MEL-28 melanoma,> 100 µM
same,GI50,SK-MEL-5 melanoma,> 100 µM
same,TGI,SK-MEL-5 melanoma,> 100 µM
same,GI50,SK-OV-3 ovarian,> 100 µM
same,TGI,SK-OV-3 ovarian,> 100 µM
same,GI50,SN12C renal,> 100 µM
same,TGI,SN12C renal,> 100 µM
same,GI50,SNB-19 CNS,> 100 µM
same,TGI,SNB-19 CNS,> 100 µM
same,GI50,SNB-75 CNS,> 100 µM
same,TGI,SNB-75 CNS,> 100 µM
same,GI50,SR leukemia,> 100 µM
same,TGI,SR leukemia,> 100 µM
same,GI50,SW-620 colon,> 100 µM
same,TGI,SW-620 colon,> 100 µM
same,GI50,T-47D breast,> 100 µM
same,TGI,T-47D breast,> 100 µM
same,GI50,TK-10 renal,> 100 µM
same,TGI,TK-10 renal,> 100 µM
same,GI50,U251 CNS,> 100 µM
same,TGI,U251 CNS,> 100 µM
same,GI50,UACC-257 melanoma,> 100 µM
same,TGI,UACC-257 melanoma,> 100 µM
same,GI50,UACC-62 melanoma,> 100 µM
same,TGI,UACC-62 melanoma,> 100 µM
same,GI50,UO-31 renal,> 100 µM
same,TGI,UO-31 renal,> 100 µM
